Experimental data published in US11447495B2, “Substituted benzo[f]imidazo[1,5-a][1,4]diazepines as GABA(a) receptor modulators” (priority 2016, dated 2022).

Experiments:
[1] = tested on: HEPG2; test: Cytotoxicity, liver cells; format: cell-based, human; settings: human, HepG2 liver cells
[2] = Airway hyperresponsiveness (sRaw) to methacholine in ovalbumin asthma model; format: in vivo, ova s/c BALB/c mice; settings: oral gavage, 100 mg/kg twice daily for 5 days, methacholine challenge
Experimental: Compounds described herein may reduce airway hyperresponsiveness in animal models of asthma. Therefore, mice may be sensitized three times with intra-peritoneal (i.p.) injections of 2 mg/kg/d of ovalbumin (Ova) emulsified in […] on days 0, 7 and 14 in a total volume of 100 μL. In addition, mice may be challenged intra-nasally (i.n.) with 1 mg/kg/d Ova for 5 days from days 23-27. Control mice may be sensitized with Ova and challenged with saline. The airway hyperresponsiveness measurements may be carried out with DSI's Buxco® FinePointe Non-Invasive Airway Mechanics (NAM) instrument consisting of a nasal chamber in combination with the thoracic chamber that allows the computation of specific airway resistance (sRaw). Treated conscious, spontaneously breathing Ova S/C mice may be exposed to aerosolized phosphate buffered saline (PBS) (for the baseline measurement) or methacholine (1.5625-12.5 mg/mL) for 1 minute and readings (sRaw) may be taken and averaged for 3 minutes after each nebulization.
Drug treatment protocol: Sterile solutions of compounds were prepared in 2% hydroxypropyl methylcellulose solution (Sigma-Aldrich, St. Louis, Mo.) and 2.5% polyethylene glycol (Sigma Aldrich, St. Louis, Mo.) for oral administration in a biological safety cabinet. A fine suspension was obtained by grinding the mixture with a mortar and pestle. Drugs were administered individually at 100 mg/kg by oral gavage (200 ul) with 20G gavage needles (Kent Scientific Corporation, Torrington Conn.) to groups of ova s/c BALB/c twice daily for 5 days during the ova challenge period. Mice received a single p.o. dose of the compounds just before airway parameter measurements. Compounds for i.p. injection were prepared in 10% DMSO, 40% propylene glycol, and 50% PBS and given as 100 ul injection. Mice were monitored daily after drug administration. Assessment of Airway hyper-responsiveness: Airway hyper-responsiveness to methacholine in conscious, spontaneously breathing animals was measured by DSI's Buxco® FinePointe Non-Invasive Airway Mechanics (NAM) instrument. Before measurements were taken, mice were acclimated to the chambers 15 minutes daily for 5 days. In addition, an ovalbumin sensitization and challenge protocol consists of randomized male BALB/c mice that were sensitized three times with intra-peritoneal (i.p.) injections of 2 mg/kg/d of ovalbumin (Ova) (Sigma-Aldrich, St. Louis, Mo.) emulsified in 2 mg of Alum (Imject Alum; Thermo Scientific, Pierce, Rockford, Ill.) on days 0, 7 and 14 in a total volume of 100 μL. The mice were then challenged intra-nasally (i.n.) with 1 mg/kg/d Ova for 5 days from days 23-27. Control mice were sensitized with Ova and challenged with saline. The chambers were also calibrated each time before data collection. Briefly, the nasal chamber in combination with the thoracic chamber allows the computation of specific airway resistance (sRaw). The FinePointe software computes specific airway resistance (sRaw) with all other ventilatory parameters derived by the NAM analyzer. Mice were exposed to aerosolized PBS (for the baseline measurement) or methacholine (1.5625-12.5 mg/mL) for 1 minute and readings were taken and averaged for 3 minutes after each nebulization. Data obtained were presented as sRaw versus the methacholine concentration (mg/mL) used to generate the aerosol. FIG. 5A-5F show compound effects on airway hyperresponsiveness. Specific airway resistance (sRaw) was measured at increasing dosages of methacholine by a DSI's Buxco FinePointe non-invasive airway mechanics instrument. Ova s/c BALB/c mice were administered all compounds via oral gavage, 100 mg/kg twice daily for 5 days. Data represent mean±SEM from 10 mice in each group. *, **, and *** indicate p<0.05, p<0.01, p<0.001 significance, respectively, compared to vehicle treated ova s/c BALB/c mice.

[3] = tested on: CD4+ T-cells isolated from ova s/c BALB/c mice spleen; test: Automated patch clamp of CD4+ T cells with 600 nM GABA; format: cell-based, mouse; settings: increasing concentrations of compound, 3 seconds
Experimental: Direct interaction between compounds and CD4^+ T cells may be investigated by electrophysiology. Therefore, CD4^+ T cells may be isolated from the spleen of asthmatic mice and treated with compounds during an automated patch clamp experiment.
To determine the effect of compounds on lymphocytes, CD4^+ T cells from Ova S/C mice were isolated and their interaction with compounds was measured by automated patch clamp. Splenocytes from ova s/c BALB/c mice were prepared following BD Biosciences instructions for preparation of murine splenocytes and red blood cell lysed using BD Pharm Lyse™ lysing solution (BD Biosciences, San Jose, Calif.). Cells were maintained in suspension in RPMI 1640 medium with L-glutamine (Thermo Fisher Scientific Inc., Rockford, Ill.) supplemented with 10% (v/v) fetal bovine serum, 10 μM 2-mercaptoethanol and 1% penicillin/streptomycin in the presence or absence of 100 μg/mL ovalbumin. The cells were maintained in 5% CO2, 95% humidified air at 37° C. for 48 hours. The IonFlux plate layout consists of units of 12 wells: two wells contain intracellular solution (ICS containing […], 1 mM CaCl2, 1 mM MgCl2, 11 mM EGTA, 10 mM HEPES, pH 7.2 with CsOH), one contains cells diluted in extracellular solution (ECS containing 140 mM NaCl, 5 mM […] KCl, 2 mM CaCl2, 1 mM MgCl2, 5 mM D-glucose monohydrate, and 10 mM HEPES, pH 7.4 with NaOH), eight contain the compounds of interest diluted in ECS, and one well is for waste collection. Cells are captured from suspension by applying suction to microscopic channels in ensemble recording arrays. Once the array is fully occupied, the applied suction breaks the membranes of captured cells, which establishes whole cell voltage clamp. For compound applications, pressure is applied to the appropriate compound wells, which introduces the compound into the extracellular solution rapidly flowing over the cells. For recording GABAAR induced currents, cell arrays were voltage clamped at a hyperpolarizing holding potential of −50 mV. Prior to use on the automated patch clamp, cells were centrifuged at 380 g for 5 minutes and resuspended gently in ECS. This was repeated two more times before the cells were dispensed into the plate. GABA and muscimol were diluted to appropriate concentrations in ECS to appropriate concentrations before application and data recorded. […] The concentration-dependent current responses of CD4+ T-cells in the presence of 600 nM GABA and increasing concentration of compounds were carried out with an N of 16 and normalized to the current response of 600 nM GABA.

[4] = tested on: mucin; test: Mucin production in airway epithelium, morphometric quantification; format: in vivo, Balb/c mice; settings: 100 mg/kg twice for five days
Experimental: Pharmacodynamic effects of compounds in respect to mucus production were investigated after the AHR measurement by harvesting the lungs of treated and non-treated Ova S/C mice followed by formalin fixation and paraffin embedding. Sections were prepared from one lobe (including large and small airways) and processed for standard H&E (for general histopathology and inflammation) and PAS (for mucous cell; as cells/mm of basement membrane) staining. FIGS. 10A-10B show compound effects on mucin production: (A) Morphometric quantification of mucin volume density and (B) representative images of mucin (red) in the airway epithelium (green) with periodic acid fluorescent Schiff's stain. Balb/c mice were administered compounds at 100 mg/kg twice for five days. Data represent mean±SEM from 5-7 mice in each group. Scale bar represents 100 μm.

Row | SMILES | LD50 HEPG2 (Liver) [1] [µM] | airway hyperresponsiveness (sRaw) [2] | GABA-induced membrane current of CD4+ T-cells [3] | production of mucin [4]
1 | C[C@H]1N=C(c2ccccc2F)c2cc(Br)ccc2-n2cnc(C(=O)O)c21 [GL-II-93, (R)-8-bromo-6-(2-fluorophenyl)-4-methyl-4H-benzo[f]imidazo[1,5-a][1,4]diazepine-3-carboxylic acid] | >400 | reduced airway hyperresponsiveness at one or multiple concentrations of methacholine | evoked a very pronounced GABA-induced transmembrane current | did not change the production of mucin
2 | CCOC(=O)c1ncn2c1[C@@H]1CCCN1C(=O)c1cc(O)ccc1-2 [RJ-02-50, ethyl (S)-7-hydroxy-9-oxo-11,12,13,13a-tetrahydro-9H-benzo[e]imidazo[5,1-c]pyrrolo[1,2-a][1,4]diazepine-1-carboxylate] | >400 | reduced airway hyperresponsiveness at one or multiple concentrations of methacholine | potentiated the GABA-induced membrane current more than SH-053-2F′F—R-CH3-Acid | did not change the production of mucin
3 | O=C1c2cc(O)ccc2-n2cnc(-c3cnco3)c2[C@@H]2CCCN12 [RJ-03-30, (S)-7-hydroxy-1-(oxazol-5-yl)-11,12,13,13a-tetrahydro-9H-benzo[e]imidazo[5,1-c]pyrrolo[1,2-a][1,4]diazepin-9-one] | >400 | not able to alleviate airway hyperresponsiveness | evoked a very pronounced GABA-induced transmembrane current | 
4 | C#Cc1ccc2c(c1)C(c1ccccc1F)=N[C@H](C)c1c(C(=O)O)ncn1-2 [SH-053-2′F-R-CH3-Acid, (R)-8-ethynyl-6-(2-fluorophenyl)-4-methyl-4H-benzo[f]imidazo[1,5-a][1,4]diazepine-3-carboxylic acid] | >400 | reduced airway hyperresponsiveness at one or multiple concentrations of methacholine | RJ-02-50 potentiated the GABA-induced membrane current more than SH-053-2F′F—R-CH3-Acid | did not change the production of mucin
